# In paper PMC7218169 (Frontiers in Immunology, 2020):
# Read-outs that look alike come from different tables or passages of the source.
# What was measured:
# CD3+ T cells = type: in vivo, human; conditions: over the three RMD doses; increases 3 days after each dose, maintained up to 1 week after RMD3
# Description: Activation of T cells was determined based upon HLA-DR expression on CD3^+ T cells. Cryopreserved PBMC were thawed, and 1,000,000 cells were stained with CD3 APC-Cy7, CD4 FITC, CD8 BV510 and HLA-DR PECy7 (BioLegend #344818, 300538, 301048, and 307616, respectively). Cells were collected on an LSRII instrument (BD), and data analyzed according to the gating criteria shown in Supplementary Figure 1 using FlowJo 10 software.
# [1] = system: early-treated HIV-1-infected individuals; conditions: in vivo
# HIV-1 [2] = type: in vivo, human; conditions: ultrasensitive single copy assay, during RMD1−2−3
# Description: To evaluate HIV-1 RNA below 20 copies/ml, 4–8 ml of plasma samples taken before (0 h) and at the end of each RMD infusion (4 h), at 8 and 24 h (+1 day) after RMD1, and 72 h (+3 days) and 7 days after RMD1−2−3 were ultracentrifugated at 170,000 g at 4°C for 30 min and viral RNA was extracted automatically using the m2000sp Abbot device. HIV-1 RNA copies were quantified using the Abbott Real-Time HIV-1 assay (Abbott Molecular Inc.) and in-house calibration curve sets as described ([38]). The limit of detection (2 HIV-1 RNA copies/mL) was calculated relative to the plasma volume.
# [3] = system: histone H3 acetylation in lymphocytes; type: in vivo, human; conditions: peripheral lymphocytes
# Description: The levels of histone H3 acetylation in lymphocytes (based on FSC/SCC scatter) were determined by flow cytometry from samples taken before (0 h) and at the end of each RMD infusion (RMD1−2−3) (4 h), at 8 and 24 h (+1 day) RMD1, and at 72 h (+3 days) and 7 days after (RMD1−2−3). Cryopreserverd PBMC were thawed 4 h before use, and 500,000 cells were blocked with 600 ul of PBS/10% FBS for 20 min and stained with polyclonal rabbit anti-acetyl histoneH3 (10 μg/ml, MerckMillipore #06–599) or normal rabbit serum (control stain, LifeTechnologies #10510) for 30 min. Cells were washed and subsequently incubated with donkey anti-rabbit IgG(H+L) (6 μg/mL, LifeTechnologies #A21206) for 30 min at room temperature in the dark. Cells were washed, re-suspended in 150 μl PBS and analyzed. ~50,000 events were acquired per sample. The median fluorescence intensity (MFI) for each sample was calculated by substracting the background MFI (isotype control stain) from the anti-acetyl histoneH3 stain.
# CD4+ T cells = conditions: median; 3 days after each RMD administration; not fully recovered by day 7 after RMD3
# [4] = 5 mg/m^2 BSA i.v. over 4 hours; for RMD-PK AUC1, Med: plasma, AUC0-inf non-compartmental from simulated individual concentrations
# HIV-1 [5] = type: in vivo, human
smiles,measurement,setting,value
"C/C=C1\NC(=O)[C@H]2CSSCC/C=C/[C@H](CC(=O)N[C@H](C(C)C)C(=O)N2)OC(=O)[C@H](C(C)C)NC1=O [RMD, Romidepsin]",T-cell activation (proportion of CD3+/HLA-DR+ cells),CD3+ T cells,increased in a progressive manner
same,AE recorded after RMD1−2−3,[1],204 AE
same,"Abdominal distension, Grade 1 n",[1],4 n
same,"Abdominal distension, Grade 2 n",[1],1 n
same,"Abdominal distension, Grade 3 n",[1],0 n
same,"Abdominal distension, Grade 4 n",[1],0 n
same,"Abdominal distension, Total n (%)",[1],5 (33) n (%)
same,"Abdominal pain, Grade 1 n",[1],5 n
same,"Abdominal pain, Grade 2 n",[1],2 n
same,"Abdominal pain, Grade 3 n",[1],0 n
same,"Abdominal pain, Grade 4 n",[1],0 n
same,"Abdominal pain, Total n (%)",[1],7 (47) n (%)
same,"Anorexia, Grade 1 n",[1],8 n
same,"Anorexia, Grade 2 n",[1],1 n
same,"Anorexia, Grade 3 n",[1],0 n
same,"Anorexia, Grade 4 n",[1],0 n
same,"Anorexia, Total n (%)",[1],9 (60) n (%)
same,"Anxiety, Grade 1 n",[1],0 n
same,"Anxiety, Grade 2 n",[1],1 n
same,"Anxiety, Grade 3 n",[1],0 n
same,"Anxiety, Grade 4 n",[1],0 n
same,"Anxiety, Total n (%)",[1],1 (7) n (%)
same,"Constipation, Grade 1 n",[1],4 n
same,"Constipation, Grade 2 n",[1],2 n
same,"Constipation, Grade 3 n",[1],0 n
same,"Constipation, Grade 4 n",[1],0 n
same,"Constipation, Total n (%)",[1],6 (40) n (%)
same,"Dry mouth, Grade 1 n",[1],1 n
same,"Dry mouth, Grade 2 n",[1],0 n
same,"Dry mouth, Grade 3 n",[1],0 n
same,"Dry mouth, Grade 4 n",[1],0 n
same,"Dry mouth, Total n (%)",[1],1 (7) n (%)
same,"ECG: ST-elevation, Grade 1 n",[1],1 n
same,"ECG: ST-elevation, Grade 2 n",[1],0 n
same,"ECG: ST-elevation, Grade 3 n",[1],0 n
same,"ECG: ST-elevation, Grade 4 n",[1],0 n
same,"ECG: ST-elevation, Total n (%)",[1],1 (7) n (%)
same,"Fatigue, Grade 1 n",[1],9 n
same,"Fatigue, Grade 2 n",[1],5 n
same,"Fatigue, Grade 3 n",[1],0 n
same,"Fatigue, Grade 4 n",[1],0 n
same,"Fatigue, Total n (%)",[1],14 (93) n (%)
same,Grade 1-2 laboratory abnormalities related to RMD,[1],22 n
same,Grade 4 creatinine kinase elevation,[1],one
same,"Headache, Grade 1 n",[1],9 n
same,"Headache, Grade 2 n",[1],5 n
same,"Headache, Grade 3 n",[1],0 n
same,"Headache, Grade 4 n",[1],0 n
same,"Headache, Total n (%)",[1],14 (93) n (%)
same,Hypophosphatemia,[1],8 events
same,"Hypotension, Grade 1 n",[1],0 n
same,"Hypotension, Grade 2 n",[1],1 n
same,"Hypotension, Grade 3 n",[1],0 n
same,"Hypotension, Grade 4 n",[1],0 n
same,"Hypotension, Total n (%)",[1],1 (7) n (%)
same,"Individuals who vomited the days of RMD administration, percent",[1],27%
same,"Libido decrease, Grade 1 n",[1],0 n
same,"Libido decrease, Grade 2 n",[1],1 n
same,"Libido decrease, Grade 3 n",[1],0 n
same,"Libido decrease, Grade 4 n",[1],0 n
same,"Libido decrease, Total n (%)",[1],1 (7) n (%)
same,"Metallic taste, Grade 1 n",[1],5 n
same,"Metallic taste, Grade 2 n",[1],1 n
same,"Metallic taste, Grade 3 n",[1],0 n
same,"Metallic taste, Grade 4 n",[1],0 n
same,"Metallic taste, Total n (%)",[1],6 (40) n (%)
same,"Myalgia, Grade 1 n",[1],1 n
same,"Myalgia, Grade 2 n",[1],1 n
same,"Myalgia, Grade 3 n",[1],0 n
same,"Myalgia, Grade 4 n",[1],0 n
same,"Myalgia, Total n (%)",[1],2 (13) n (%)
same,"Nausea, Grade 1 n",[1],4 n
same,"Nausea, Grade 2 n",[1],7 n
same,"Nausea, Grade 3 n",[1],0 n
same,"Nausea, Grade 4 n",[1],0 n
same,"Nausea, Total n (%)",[1],11 (73) n (%)
same,"Palpitations, Grade 1 n",[1],3 n
same,"Palpitations, Grade 2 n",[1],0 n
same,"Palpitations, Grade 3 n",[1],0 n
same,"Palpitations, Grade 4 n",[1],0 n
same,"Palpitations, Total n (%)",[1],3 (20) n (%)
same,"Participants with grade 4 AE, sepsis by Shigella sonnei (SAE)",[1],One
same,"Rash, Grade 1 n",[1],0 n
same,"Rash, Grade 2 n",[1],2 n
same,"Rash, Grade 3 n",[1],0 n
same,"Rash, Grade 4 n",[1],0 n
same,"Rash, Total n (%)",[1],2 (13) n (%)
same,"Sepsis by Shigella sonnei (SAE), Grade 1 n",[1],0 n
same,"Sepsis by Shigella sonnei (SAE), Grade 2 n",[1],0 n
same,"Sepsis by Shigella sonnei (SAE), Grade 3 n",[1],0 n
same,"Sepsis by Shigella sonnei (SAE), Grade 4 n",[1],1 n
same,"Sepsis by Shigella sonnei (SAE), Total n (%)",[1],1 (7) n (%)
same,"Somnolence, Grade 1 n",[1],1 n
same,"Somnolence, Grade 2 n",[1],0 n
same,"Somnolence, Grade 3 n",[1],0 n
same,"Somnolence, Grade 4 n",[1],0 n
same,"Somnolence, Total n (%)",[1],1 (7) n (%)
same,"Sweating, Grade 1 n",[1],2 n
same,"Sweating, Grade 2 n",[1],2 n
same,"Sweating, Grade 3 n",[1],0 n
same,"Sweating, Grade 4 n",[1],0 n
same,"Sweating, Total n (%)",[1],4 (27) n (%)
same,Thrombocytopenia,[1],5 events
same,Tolerability at the regimen and dose administered,[1],well-tolerated
same,"Vomits, Grade 1 n",[1],4 n
same,"Vomits, Grade 2 n",[1],0 n
same,"Vomits, Grade 3 n",[1],0 n
same,"Vomits, Grade 4 n",[1],0 n
same,"Vomits, Total n (%)",[1],4 (27) n (%)
same,Kinetics of plasma HIV-1 RNA levels,HIV-1 [2],did not follow a clear pattern
same,Time of return of acH3 to baseline values after each dose,[3]; flow cytometry,3 days
same,Histone H3 acetylation (acH3) during each RMD infusion,"[3]; flow cytometry MFI, remained high during 4 h",increased rapidly
same,Transient decrease of CD4+ T-cell counts,CD4+ T cells,248 cells/mm^3
same,"RMD-PK AUC1, Med",[4]; MAP - Controllers (n=3),473.5
same,"RMD-PK AUC1, Med",[4]; MAP - Non Controllers (n=10),392.9
same,RMD concentrations in plasma by 24 h after dosing,"[4]; individual profiles simulated with population PK model, LC-MS/MS",nearly undetectable levels
same,Individuals with increases in CA HIV-1 RNA above 2-fold,HIV-1 [5]; at any time point after RMD administrations,80%
same,HIV-1 transcription (cell-associated HIV-1 RNA),"HIV-1 [5]; peripheral CD4+ T cells, normalized to TBP, relative to pre-RMD1, more pronounced after RMD2 and RMD3",transiently increased
same,Median increase of viral expression (CA HIV-1 RNA) at the end of each RMD infusion,"HIV-1 [5]; without correction by housekeeping gene, relative to before RMD1, normalization beyond 4 hours",higher than 2.5 fold
